Results taken from patent US4619925A, “3-Propenyl cephalosporin derivatives” (priority 1985, dated 1986).
In brackets after ≈: the same amount, converted by molar mass. Where two headings read alike, the source gives them in different places.

How the values were obtained:
[1] = system: N. gonorrheae A20155; assay: In vitro activity against fastidious bacteria; format: cell-based; details: N. gonorrheae A20155; read-out: MIC
From the text: (§1) Table 5 contains comparative data for in vitro antibacterial activity against fastidious bacteria.

[2] = system: N. meningitidis A21487; assay: In vitro activity against fastidious bacteria; format: cell-based; details: Neisseria meningitidis; N. meningitidis A21487; read-out: MIC
From the text: as §1

[3] = system: H. influenzae A22482; assay: In vitro activity against fastidious bacteria; format: cell-based; details: Haemophilus influenzae
From the text: as §1

[4] = system: S. pneumoniae Type I; assay: In vitro activity against fastidious bacteria; format: cell-based; details: Streptococcus pneumoniae; S. pneumoniae Type I; read-out: MIC
From the text: as §1

[5] = system: H. influenzae A22491; assay: In vitro activity against fastidious bacteria; format: cell-based; details: Haemophilus influenzae, ampicillin-resistant (ABPC-R)
From the text: as §1

[6] = system: N. gonorrheae A15112; assay: In vitro activity against fastidious bacteria; format: cell-based; details: N. gonorrheae A15112; read-out: MIC
From the text: as §1

[7] = system: H. influenzae A22481; assay: In vitro activity against fastidious bacteria; format: cell-based; details: Haemophilus influenzae, ampicillin-resistant (ABPC-R)
From the text: as §1

[8] = system: N. meningitidis A21497; assay: In vitro activity against fastidious bacteria; format: cell-based; details: Neisseria meningitidis; N. meningitidis A21497; read-out: MIC
From the text: as §1

[9] = system: S. pneumoniae Type II; assay: In vitro activity against fastidious bacteria; format: cell-based; details: Streptococcus pneumoniae; S. pneumoniae Type II; read-out: MIC
From the text: as §1

[10] = system: S. pneumoniae Type III; assay: In vitro activity against fastidious bacteria; format: cell-based; details: Streptococcus pneumoniae; S. pneumoniae Type III; read-out: MIC
From the text: as §1

[11] = system: S. pneumoniae A15069; assay: In vitro activity against fastidious bacteria; format: cell-based; details: Streptococcus pneumoniae; S. pneumoniae A15069; read-out: MIC
From the text: as §1

[12] = system: S. pyogenes A15040; assay: In vitro activity against fastidious bacteria; format: cell-based; details: Streptococcus pyogenes; S. pyogenes A15040; read-out: MIC
From the text: as §1

[13] = system: H. influenzae A9833; assay: In vitro activity against fastidious bacteria; format: cell-based; details: Haemophilus influenzae; H. influenzae A9833; ampicillin-sensitive (ABPC-S); read-out: MIC
From the text: as §1

[14] = system: H. influenzae A21523; assay: In vitro activity against fastidious bacteria; format: cell-based; details: Haemophilus influenzae; H. influenzae A21523; ampicillin-sensitive (ABPC-S); read-out: MIC
From the text: as §1

[15] = system: S. pneumoniae A9585; assay: In vitro activity against fastidious bacteria; format: cell-based; details: Streptococcus pneumoniae; S. pneumoniae A9585; read-out: MIC
From the text: as §1

[16] = system: H. influenzae A20177; assay: In vitro activity against fastidious bacteria; format: cell-based; details: Haemophilus influenzae; H. influenzae A20177; ampicillin-sensitive (ABPC-S); read-out: MIC
From the text: as §1

[17] = system: H. influenzae A9729; assay: In vitro activity against fastidious bacteria; format: cell-based; details: Haemophilus influenzae; H. influenzae A9729; ampicillin-sensitive (ABPC-S); read-out: MIC
From the text: as §1

[18] = system: S. pneumoniae A20759; assay: In vitro activity against fastidious bacteria; format: cell-based; details: Streptococcus pneumoniae; S. pneumoniae A20759; read-out: MIC
From the text: as §1

[19] = system: N. gonorrheae A20143; assay: In vitro activity against fastidious bacteria; format: cell-based; details: N. gonorrheae A20143; read-out: MIC
From the text: as §1

[20] = system: H. influenzae A20193; assay: In vitro activity against fastidious bacteria; format: cell-based; details: Haemophilus influenzae; H. influenzae A20193; ampicillin-sensitive (ABPC-S); read-out: MIC
From the text: as §1

[21] = system: N. gonorrheae A20154; assay: In vitro activity against fastidious bacteria; format: cell-based; details: N. gonorrheae A20154; read-out: MIC
From the text: as §1

[22] = system: N. meningitidis A20049; assay: In vitro activity against fastidious bacteria; format: cell-based; details: Neisseria meningitidis; N. meningitidis A20049; read-out: MIC
From the text: as §1

[23] = system: S. pyogenes A20201; assay: In vitro activity against fastidious bacteria; format: cell-based; details: Streptococcus pyogenes; S. pyogenes A20201; read-out: MIC
From the text: as §1

[24] = system: H. influenzae A22157; assay: In vitro activity against fastidious bacteria; format: cell-based; details: Haemophilus influenzae, ampicillin-resistant (ABPC-R)
From the text: as §1

[25] = system: S. pyogenes Dick; assay: In vitro activity against fastidious bacteria; format: cell-based; details: Streptococcus pyogenes; S. pyogenes Dick; read-out: MIC
From the text: as §1

[26] = system: H. influenzae A22483; assay: In vitro activity against fastidious bacteria; format: cell-based; details: Haemophilus influenzae
From the text: as §1

[27] = system: N. meningitidis A20048; assay: In vitro activity against fastidious bacteria; format: cell-based; details: Neisseria meningitidis; N. meningitidis A20048; read-out: MIC
From the text: as §1

[28] = system: S. pyogenes s-23; assay: In vitro activity against fastidious bacteria; format: cell-based; details: Streptococcus pyogenes, S23; S. pyogenes s-23; read-out: MIC
From the text: as §1

[29] = system: S. pyogenes A20065; assay: In vitro activity against fastidious bacteria; format: cell-based; details: Streptococcus pyogenes; S. pyogenes A20065; read-out: MIC
From the text: as §1

[30] = system: N. meningitidis A21495; assay: In vitro activity against fastidious bacteria; format: cell-based; details: Neisseria meningitidis; N. meningitidis A21495; read-out: MIC
From the text: as §1

[31] = system: S. pyogenes A9604; assay: In vitro activity against fastidious bacteria; format: cell-based; details: Streptococcus pyogenes; S. pyogenes A9604; read-out: MIC
From the text: as §1

[32] = Mouse urinary recovery; format: in vivo, mice; details: 20 mg/kg; for dose excreted at 2 h / dose excreted at 4 h / dose excreted at 6 h / dose excreted at 24 h: mouse, urine, po; for dose excreted at 2 h: 0-2 hr; for dose excreted at 4 h: 2-4 hr; for dose excreted at 6 h: 4-6 hr
[33] = p.o., 6-24 hr, read-out: Mouse urinary recovery 6-24 hr
[34] = p.o., total, read-out: Mouse urinary recovery Total

Structure (SMILES)	MIC [1] [µg/mL]	MIC [2] [µg/mL]	MIC [4] [µg/mL]	MIC [5] [µg/mL]	MIC [6] [µg/mL]	MIC [7] [µg/mL]	MIC [8] [µg/mL]	MIC [9] [µg/mL]	MIC [10] [µg/mL]	MIC [11] [µg/mL]	MIC [12] [µg/mL]	MIC [13] [µg/mL]	MIC [14] [µg/mL]	MIC [15] [µg/mL]	MIC [16] [µg/mL]	MIC [17] [µg/mL]	MIC [18] [µg/mL]	MIC [19] [µg/mL]	MIC [20] [µg/mL]	MIC [21] [µg/mL]	further results
C/C=C\C1=C(C(=O)O)N2C(=O)C(NC(=O)[C@H](N)c3cccc(O)c3)[C@H]2SC1 (some centres unmarked) [BMY-28272, 7-[(D)-2-amino-2-(3-hydroxyphenyl)acetamido]-3-[(Z)-1-propenyl]-3-cephem-4-carboxylic acid]	0.4 (≈ 1.03 µM)	0.8 (≈ 2.05 µM)	0.1 (≈ 0.257 µM)	0.8 (≈ 2.05 µM)	0.4 (≈ 1.03 µM)	0.8 (≈ 2.05 µM)	0.4 (≈ 1.03 µM)	0.1 (≈ 0.257 µM)	0.4 (≈ 1.03 µM)	0.4 (≈ 1.03 µM)	0.05 (≈ 0.128 µM)	0.4 (≈ 1.03 µM)	0.8 (≈ 2.05 µM)	0.1 (≈ 0.257 µM)	0.8 (≈ 2.05 µM)	0.4 (≈ 1.03 µM)	0.4 (≈ 1.03 µM)	0.8 (≈ 2.05 µM)	0.8 (≈ 2.05 µM)	0.8 (≈ 2.05 µM)	MIC ([3]; A22482): 0.4 µg/mL (≈ 1.03 µM); MIC [22]: 0.8 µg/mL (≈ 2.05 µM); MIC [23]: 0.05 µg/mL (≈ 0.128 µM); MIC [24]: 0.4 µg/mL (≈ 1.03 µM); MIC [25]: 0.05 µg/mL (≈ 0.128 µM); MIC ([26]; A22483): 0.4 µg/mL (≈ 1.03 µM); MIC [27]: 0.8 µg/mL (≈ 2.05 µM); MIC [28]: 0.05 µg/mL (≈ 0.128 µM); MIC [29]: 0.05 µg/mL (≈ 0.128 µM); MIC [30]: 0.4 µg/mL (≈ 1.03 µM); MIC [31]: 0.05 µg/mL (≈ 0.128 µM); total recovery ratio relative to BMY-28100 and cefaclor ([32]; p.o.): smaller than those of BMY-28100 and cefaclor; rate of excretion relative to BMY-28100 and cefaclor ([32]; p.o., from the 6-24 hours period): slower than BMY-28100 and cefaclor; dose excreted at 2 h [32]: 37%; dose excreted at 4 h [32]: 4.4%; dose excreted at 6 h [32]: 0.4%; dose excreted at 24 h [32, 33]: 8.7%; dose excreted at 24 h [32, 34]: 51%
C/C=C\C1=C(C(=O)O)N2C(=O)C(NC(=O)[C@H](N)c3ccc(O)cc3)[C@H]2SC1 (stereo partly drawn) [BMY-28100, 7-[D-2-amino-2-(4-hydroxyphenyl)acetamido]-3-[(Z)-1-propen-1-yl]-3-cephem-4-carboxylic acid]	0.8 (≈ 2.05 µM)	0.4 (≈ 1.03 µM)	0.1 (≈ 0.257 µM)	0.8 (≈ 2.05 µM)	0.8 (≈ 2.05 µM)	0.8 (≈ 2.05 µM)	0.4 (≈ 1.03 µM)	0.1 (≈ 0.257 µM)	0.2 (≈ 0.514 µM)	0.4 (≈ 1.03 µM)	0.05 (≈ 0.128 µM)	0.8 (≈ 2.05 µM)	0.8 (≈ 2.05 µM)	0.1 (≈ 0.257 µM)	0.8 (≈ 2.05 µM)	0.8 (≈ 2.05 µM)	0.4 (≈ 1.03 µM)	0.8 (≈ 2.05 µM)	0.8 (≈ 2.05 µM)	0.8 (≈ 2.05 µM)	MIC ([3]; H. influenzae A22482, ampicillin-sensitive (ABPC-S), read-out: MIC): 0.8 µg/mL (≈ 2.05 µM); MIC [22]: 0.4 µg/mL (≈ 1.03 µM); MIC [23]: 0.05 µg/mL (≈ 0.128 µM); MIC [24]: 0.8 µg/mL (≈ 2.05 µM); MIC [25]: 0.05 µg/mL (≈ 0.128 µM); MIC ([26]; H. influenzae A22483, ampicillin-sensitive (ABPC-S), read-out: MIC): 0.8 µg/mL (≈ 2.05 µM); MIC [27]: 0.4 µg/mL (≈ 1.03 µM); MIC [28]: 0.05 µg/mL (≈ 0.128 µM); MIC [29]: 0.05 µg/mL (≈ 0.128 µM); MIC [30]: 0.4 µg/mL (≈ 1.03 µM); MIC [31]: 0.05 µg/mL (≈ 0.128 µM); dose excreted at 2 h [32]: 60%; dose excreted at 4 h [32]: 5.3%; dose excreted at 6 h [32]: 1.3%; dose excreted at 24 h [32, 33]: 2.3%; dose excreted at 24 h [32, 34]: 69%
